Test [1] relates to Human immunodeficiency virus 1. The test is described as follows: Antiviral activity against VSV-G pseudotyped HIV-1 NL4-3 infected in human U373-MAGI cells assessed as increase in mutation frequency at 50 uM incubated for 4 hrs prior to infection measured at 72 hrs post infection by illumina sequencing method. It counts as functional.
Test [2] concerns Human immunodeficiency virus 1. The test is described as follows: Potentiation of 5-Aza-dC-induced antiviral activity against VSV-G pseudotyped HIV-1 NL4-3 infected in human U373-MAGI cells assessed as increase in frequency of G to C transversion at 50 uM incubated for 4 hrs preinfection followed by 5-Aza-C addition for 2 hrs preinfection and subsequent viral infection measured at 72 hrs post infection by illumina sequencing method relative to control. It counts as functional, organism-based.

Test [3] deals with U373-MAGI. In words: Reduction in dGTP level in human U373-MAGI cells at 200 uM after 6 hrs by LC-MS/MS analysis. It counts as functional, cell-based.
The test system of test [4] is U373-MAGI. In words: Reduction in dRGU-TP level in human U373-MAGI cells at 50 uM preincubated for 2 hrs followed by 5-aza-C addition measured after 4 hrs by LC-MS/MS analysis. It counts as functional, cell-based.
In test [5] the test system is Human immunodeficiency virus 1. The test is described as follows: Potentiation of 5-Aza-dC-induced antiviral activity against VSV-G pseudotyped HIV-1 NL4-3 infected in human U373-MAGI cells assessed as increase in frequency of C to G transversion at 50 uM incubated for 4 hrs preinfection followed by 5-Aza-C addition for 2 hrs preinfection and subsequent viral infection measured at 72 hrs post infection by illumina sequencing method relative to control. The class given is functional, organism-based.

The subject of test [6] is Human immunodeficiency virus 1. In words: Potentiation of 5-Aza-C-induced antiviral activity against VSV-G pseudotyped HIV-1 NL4-3 infected in human U373-MAGI cells assessed as reduction in gag level at 50 uM after 2 to 72 hrs by qPCR method. The class given is functional, organism-based.
The subject of test [7] is Human immunodeficiency virus 1. In words: Potentiation of 5-Aza-C-induced antiviral activity against VSV-G pseudotyped HIV-1 NL4-3 infected in human U373-MAGI cells assessed as Gag mutation at 50 uM incubated for 4 hrs preinfection followed by 5-Aza-C addition for 2 hrs preinfection and subsequent viral infection measured at 72 hrs post infection by illumina sequencing method (reference value: 18.4%). It counts as functional.

In test [8] the test system is Human immunodeficiency virus 1. In words: Antiviral activity against VSV-G pseudotyped HIV-1 NL4-3 infected in human U373-MAGI cells assessed as increase in frequency of A to C transversion at 50 uM incubated for 4 hrs prior to infection measured at 72 hrs post infection by illumina sequencing method relative to control. The class given is functional.
Test [9] relates to Human immunodeficiency virus 1. The test is described as follows: Potentiation of 5-Aza-C-induced antiviral activity against VSV-G pseudotyped HIV-1 NL4-3 infected in human U373-MAGI cells assessed as Nef mutation at 50 uM incubated for 4 hrs preinfection followed by 5-Aza-C addition for 2 hrs preinfection and subsequent viral infection measured at 72 hrs post infection by illumina sequencing method (reference value: 22.6%). It counts as functional.

Test [10] relates to Human immunodeficiency virus 1. In words: Potentiation of 5-Aza-dC-induced antiviral activity against VSV-G pseudotyped HIV-1 NL4-3 infected in human U373-MAGI cells assessed as Gag mutation at 50 uM incubated for 4 hrs preinfection followed by 5-Aza-C addition for 2 hrs preinfection and subsequent viral infection measured at 72 hrs post infection by illumina sequencing method (reference value: 18.4%). It counts as functional.

Test [11] has as its system Human immunodeficiency virus 1. The test is described as follows: Potentiation of 5-Aza-C-induced antiviral activity against VSV-G pseudotyped HIV-1 NL4-3 infected in human U373-MAGI cells assessed as reduction in U5-gag level at 50 uM after 2 to 72 hrs by qPCR method. The class given is functional, organism-based.
Test [12] deals with Human immunodeficiency virus 1. In words: Potentiation of 5-Aza-dC-induced antiviral activity against VSV-G pseudotyped HIV-1 NL4-3 infected in human U373-MAGI cells assessed as reduction in viral infectivity at 25 uM preincubated for 2 hrs followed by 5-Aza-dC addition for 2 hrs and subsequent viral infection measured at 72 hrs post infection by flow cytometric analysis. The class given is functional, organism-based.

Test [13] has as its system U373-MAGI. In words: Reduction in 5-aza-dCTP level in human U373-MAGI cells at 200 uM preincubated for 2 hrs followed by 5-aza-C addition measured after 4 hrs by LC-MS/MS analysis. The class given is functional, cell-based.

Molecules are shown by their SMILES. Calls of active or inactive are those of the source. No cut-off for these calls is given here.

In the case of `Oc1ccc(/C=C/c2cc(O)cc(O)c2)cc1` [RESVERATROL], the “fold change (FC)” value was found to be 1.5 in test [1] and 1.8 in test [8]. Further, the result (in test [2]; with U373-MAGI [4]; in test [5]) was inactive. Further, the result (with U373-MAGI [3]; in test [6]; in test [11]; in [12]; in the test on U373-MAGI [13]) was Active. Besides, the Activity is listed as 15.5% in test [7], 17.1% in test [9] and 15.7% in test [10].
